In patent publication US20240424112A1, “TETRAHYDROISOQUINOLINE COMPOUNDS THAT ARE KEAP1 BINDERS” (C4X Discovery Limited, priority 2021, published 2024):

How the values were obtained:
BRD4 long isoform = target: T1, BRD4 long isoform (Homo sapiens, UniProt O60885); test: BRD4 degradation assay (Western blot, MDA-MB-468 cells), long isoform; assay type: cell-based; details: MDA-MB-468, n = 2
T1 construct: endogenous in cells; host or cells: MDA-MB-468
Experimental: (§1) BRD4 Degradation Assay Protocol Summary
(§2) MDA-MB-468 cells were cultured routinely in DMEM supplemented with 10% heat inactivated FBS and 1% Penicillin-Streptomycin (Thermofisher Scientific) at 37° C. 5% CO2. Cells were seeded in 6-well plates at 4*10^5 cells per well and left to adhere overnight. Example compounds were solubilised in DMSO to make 10 mM stocks followed by serial dilutions in DMSO to 200× final concentration. These were further diluted in culture media to give 20× treatment stocks before addition to cells to a 1× final concentration. Cells were then incubated at 37° C. 5% CO2 for 24 or 48 hours after which cells were lysed in RIPA buffer supplemented with cOmplete Mini Protease Inhibitor Cocktail and PhosSTOP™ (Roche). Lysates were clarified by centrifugation at 13,000 RPM for 10 minutes and the protein concentration of the resulting supernatants determined by BCA assay (ThermoFisher Scientific) as per manufacturer's instructions. Lysates were denatured and reduced in NuPAGE LDS sample buffer and sample reducing agent before 10 μg was loaded onto NuPAGE […] Tris-Acetate Mini Protein Gels (ThermoFisher Scientific). Protein was transferred to nitrocellulose membranes using a Trans-Blot Turbo Transfer System (Bio-Rad) before blocking for 1 hour in Intercept (TBS) Blocking Buffer (Li-Cor). Membranes were then incubated overnight with BRD4 (ab128874; Abcam) and α-tubulin (T6074; Sigma-Aldrich) antibodies diluted 1:2000 and 1:16,000 respectively in Tris-buffered saline 0.05% Tween 20 (TBS-T). The following day, membranes were washed with TBS-T before addition of anti-rabbit IRDye 800 CW and anti-mouse IRDye 680LT secondary antibodies (LiCor) (diluted 1:10,000 in TBS-T) for one hour. Membranes were then washed with TBS-T before imaging using a LICOR Odyssey Infrared Imaging System with Image Studio Ver 5.2 software (LiCor). Densitometry analysis was carried out in the LiCor image studio software where BRD4 signal was normalised to α-tubulin signal. Percentage degradation of BRD4 relative to the DMSO treated negative control was calculated as: =100−(signal of interest/signal of control sample*100). BRD4 degradation by dBET1 was used as positive control for each plate. Data obtained for the percentage degradation of BRD4 upon treatment with the Example compounds 1-6 and Comparative Example compounds 1-3 at 24 hour incubation are shown in Table 2 and with 48 hour incubation are shown in Table 3.

BRD4 short isoform = target: T2, BRD4 short isoform (Homo sapiens, UniProt O60885); test: BRD4 degradation assay (Western blot, MDA-MB-468 cells), short isoform; assay type: cell-based; details: MDA-MB-468, n = 2
T2 construct: endogenous in cells; host or cells: MDA-MB-468
Experimental: as §1, §2

[1] = test system: NRF2 mediated gene NAD(P)H:quinone acceptor oxidoreductase 1 (NQO1) mRNA in BEAS-2B cells; test: Beas2B NQO1 mRNA cell based assay; details: Homo sapiens, 24 h, vs vehicle (0.1% DMSO), read-out: EC50 (increase in NQO1 mRNA)
Experimental: Beas2B NQO1 mRNA Cell Based Assay
The up-regulation of the NRF2 mediated gene NAD(P)H:quinone acceptor oxidoreductase 1 (NQO1) was measured using the following assay method: BEAS-2B cells (ATCC CRL-9609) were plated in 96-well clear plates at 20,000 cells/well in 75 μL of cell culture media and incubated overnight (37° C., 5% CO2). On day 2, 25 μL of compound or controls were added to the cells for 24 h. On day 3, the medium was aspirated from the plate and the Cells-to-CT™ 1-Step TaqMan® Kit (Ambion A25603) was used to perform expression analysis directly from cultured cells without RNA purification according to the manufacturer's instructions.
Briefly, cells were washed with ice cold PBS and 22.5 μL of room-temperature DNase/Lysis solution was added to the cells and incubated at room temperature for 5 minutes. To stop the reaction, 2.25 μL of stop solution was added to the cell lysate. The samples were diluted 1:5 using nuclease free water and 2.5 μL transferred into the PCR plate. Real-time PCR was performed using the C-1000 Thermal Cycler (Bio-Rad) using human beta actin as the internal control. The cDNA was amplified with a specific primer for NQO1 using the 1-step RT-PCR master mix (Ambion Cells-to-CT™ 1-Step TaqMan® Kit A25603). The primers/probes sets that were used for amplification of cDNA were obtained from TaqMan Gene Expression Assays (Applied Biosystems). The comparative CT (ΔΔCT) relative quantification method was used to calculate the relative mRNA level of the target gene NQO1 as described in the Applied Biosystems Chemistry Guide. The data are expressed as an increase in target gene mRNA compared to vehicle (0.1% DMSO) control and the EC50 values were determined by fitting the data to a four parameter logistic fit using XLfit or XE Runner within ActivityBase.

| Compound | % Mean Degradation of BRD4 (BRD4 long isoform; 24 h, 0.1 μM) [%] | % Mean Degradation of BRD4 (BRD4 long isoform; 24 h, 1 μM) [%] | % Mean Degradation of BRD4 (BRD4 long isoform; 24 h, 5 μM) [%] | % Mean Degradation of BRD4 (BRD4 long isoform; 48 h, 0.1 μM) [%] | % Mean Degradation of BRD4 (BRD4 long isoform; 48 h, 1 μM) [%] | % Mean Degradation of BRD4 (BRD4 long isoform; 48 h, 5 μM) [%] | % Mean Degradation of BRD4 (BRD4 short isoform; 24 h, 0.1 μM) [%] | % Mean Degradation of BRD4 (BRD4 short isoform; 24 h, 1 μM) [%] | % Mean Degradation of BRD4 (BRD4 short isoform; 24 h, 5 μM) [%] | % Mean Degradation of BRD4 (BRD4 short isoform; 48 h, 0.1 μM) [%] | % Mean Degradation of BRD4 (BRD4 short isoform; 48 h, 1 μM) [%] | % Mean Degradation of BRD4 (BRD4 short isoform; 48 h, 5 μM) [%] | EC50 [1] [nM] |
| --- | --- | --- | --- | --- | --- | --- | --- | --- | --- | --- | --- | --- | --- |
| Cc1sc2c(c1C)C(c1ccc(Cl)cc1)=N[C@@H](CC(=O)NCCOCCNC(=O)[C@@]1(C)CCCC[C@H]1C(=O)N1CCc3c(Cl)ccc(OCc4nnn(C)c4C)c3[C@H]1CN1CC3(CC3)CC1=O)c1nnc(C)n1-2 [Comparative Example 2, (1S,2R)-2-((S)-5-chloro-8-((1,5-dimethyl-1H-1,2,3-triazol-4-yl)methoxy)-1-((6-oxo-5-azaspiro[2.4]heptan-5-yl)methyl)-1,2,3,4-tetrahydroisoquinoline-2-carbonyl)-N-(2-(2-(2-((S)-4-(4-chlorophenyl)-2,3,9-trimethyl-6H-thieno[3,2-f][1,2,4]triazolo[4,3-a][1,4]diazepin-6-yl)acetamido)ethoxy)ethyl)-1-methylcyclohexane-1-carboxamide, reference compound] | −33 | 3 | 14 | −26 | −61 | −124 | −6 | 9 | 26 | −15 | 13 | 20 | 75 |
| Cc1sc2c(c1C)C(c1ccc(Cl)cc1)=N[C@@H](CC(=O)NCCC(=O)NCCOCc1c(COc3ccc(Cl)c4c3[C@@H](CN3CC5(CC5)CC3=O)N(C(=O)[C@@H]3CCCC[C@]3(C)C(=O)O)CC4)nnn1C)c1nnc(C)n1-2 [Example 4, (1S,2R)-2-((S)-5-Chloro-8-((5-((2-(3-(2-((S)-4-(4-chlorophenyl)-2,3,9-trimethyl-6H-thieno[3,2-f][1,2,4]triazolo[4,3-a][1,4]diazepin-6-yl)acetamido)propanamido)ethoxy)methyl)-1-methyl-1H-1,2,3-triazol-4-yl)methoxy)-1-((6-oxo-5-azaspiro[2.4]heptan-5-yl)methyl)-1,2,3,4-tetrahydroisoguinoline-2-carbonyl)-1-methylcyclohexane-1-carboxylic acid] | −37 | 26 | 43 | −19 | 56 | 71 | 18 | 65 | 75 | −2 | 65 | 77 | 660 |
| Cc1sc2c(c1C)C(c1ccc(Cl)cc1)=N[C@@H](CC(=O)NCCOCCOCCNC(=O)[C@@]1(C)CCCC[C@H]1C(=O)N1CCc3c(Cl)ccc(OCc4nnn(C)c4C)c3[C@H]1CN1CC3(CC3)CC1=O)c1nnc(C)n1-2 [Comparative Example 3, (1S,2R)-2-((S)-5-Chloro-8-((1,5-dimethyl-1H-1,2,3-triazol-4-yl)methoxy)-1-((6-oxo-5-azaspiro[2.4]heptan-5-yl)methyl)-1,2,3,4-tetrahydroisoguinoline-2-carbonyl)-N-(2-(2-(2-(2-((S)-4-(4-chlorophenyl)-2,3,9-trimethyl-6H-thieno[3,2-f][1,2,4]triazolo[4,3-a][1,4]diazepin-6-yl)acetamido)ethoxy)ethoxy)ethyl)-1-methylcyclohexane-1-carboxamide, reference compound] | 34 | 45 | 49 | 13 | 30 | 20 | 5 | 31 | 18 | 23 | 32 | −4 | 68 |
| Cc1sc2c(c1C)C(c1ccc(Cl)cc1)=N[C@@H](CC(=O)NCC(=O)NCCNC(=O)[C@@]1(C)CCCC[C@H]1C(=O)N1CCc3c(Cl)ccc(OCc4nnn(C)c4C)c3[C@H]1CN1CC3(CC3)CC1=O)c1nnc(C)n1-2 [Comparative Example 1, (1S,2R)-2-((S)-5-Chloro-8-((1,5-dimethyl-1H-1,2,3-triazol-4-yl)methoxy)-1-((6-oxo-5-azaspiro[2.4]heptan-5-yl)methyl)-1,2,3,4-tetrahydroisoquinoline-2-carbonyl)-N-(2-(2-(2-((S)-4-(4-chlorophenyl)-2,3,9-trimethyl-6H-thieno[3,2-f][1,2,4]triazolo[4,3-a][1,4]diazepin-6-yl)acetamido)acetamido)ethyl)-1-methylcyclohexane-1-carboxamide, reference compound] | 11 | 18 | 5 | −39 | −27 | −47 | 18 | 42 | 43 | −11 | 24 | 28 | 212 |
| Cc1sc2c(c1C)C(c1ccc(Cl)cc1)=N[C@@H](CC(=O)NCC(=O)NCCOCc1c(COc3ccc(Cl)c4c3[C@@H](CN3CC5(CC5)CC3=O)N(C(=O)[C@@H]3CCCC[C@]3(C)C(=O)O)CC4)nnn1C)c1nnc(C)n1-2 [Example 3, (1S,2R)-2-((S)-5-Chloro-8-((5-((2-(2-(2-((S)-4-(4-chlorophenyl)-2,3,9-trimethyl-6H-thieno[3,2-f][1,2,4]triazolo[4,3-a][1,4]diazepin-6-yl)acetamido)acetamido)ethoxy)methyl)-1-methyl-1H-1,2,3-triazol-4-yl)methoxy)-1-((6-oxo-5-azaspiro[2.4]heptan-5-yl)methyl)-1,2,3,4-tetrahydroisoquinoline-2-carbonyl)-1-methylcyclohexane-1-carboxylic acid] | 23 | 80 | 75 | 14 | 67 | 60 | 31 | 87 | 87 | 25 | 77 | 79 | 280 |
